According to the supplement of paper PMC11061612:

Legend:
[1] = system: COLO-679 (Melanoma); assay: Bliss excess, mean over the matrix (fraction); higher = more synergy
Outline: (§1)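 Bliss excess equals the observed combination effect minus the expected value EA + EB − EA·EB, where EA and EB are the effects of each agent alone. Combination Emax is the second-highest inhibition within the matrix. Inhibition was scaled from CellTiter-Glo 2.0 luminescence, with 0 set by vehicle wells and 1 by blank wells, after 72 hours of two-drug dosing of cells plated in 1536-well plates.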

[2] = system: Ca-Ski (Cervical Carcinoma); assay: as above
Outline: as §1

[3] = system: OACM5-1 (Esophageal Adenocarcinoma); assay: combination Emax (second highest fraction inhibited in the dose matrix, 72 h); higher = more inhibition; extreme values may be limits of the assay
Outline: as §1

[4] = system: ME-180 (Cervical Carcinoma); assay: as above
Outline: as §1

[5] = system: EJM (Plasma Cell Myeloma); assay: as above
Outline: as §1

[6] = system: DU-145 (Prostate Carcinoma); assay: as above
Outline: as §1

[7] = system: NCI-H1092 (Small Cell Lung Carcinoma); assay: as above
Outline: as §1

[8] = system: NCI-H522 (Lung Adenocarcinoma); assay: as above
Outline: as §1

[9] = system: HCC2998 (Colorectal Carcinoma); assay: as above
Outline: as §1

[10] = system: NCI-H650 (Lung Adenocarcinoma); assay: as above
Outline: as §1

[11] = system: A4-Fuk (B-Lymphoblastic Leukemia); assay: as above
Outline: as §1

[12] = system: Ca-Ski (Cervical Carcinoma); assay: as above
Outline: as §1

[13] = system: KOPN-8 (B-Lymphoblastic Leukemia); assay: as above
Outline: as §1

[14] = system: SK-N-AS (Neuroblastoma); assay: as above
Outline: as §1

[15] = system: NCI-H2122 (Lung Adenocarcinoma); assay: as above
Outline: as §1

[16] = system: MV-4-11 (Acute Myeloid Leukemia); assay: as above
Outline: as §1

[17] = system: SW872 (Other Solid Carcinomas); assay: as above
Outline: as §1

[18] = system: ML-2 (Acute Myeloid Leukemia); assay: as above
Outline: as §1

[19] = system: ALL-SIL (T-Lymphoblastic Leukemia); assay: as above
Outline: as §1

[20] = system: CADO-ES1 (Ewing's Sarcoma); assay: as above
Outline: as §1

| SMILES | Bliss excess [1] | Bliss excess [2] | combination Emax [3] | combination Emax [4] | combination Emax [5] | combination Emax [6] | combination Emax [7] | combination Emax [8] | combination Emax [9] | combination Emax [10] | combination Emax [11] | combination Emax [12] | combination Emax [13] | combination Emax [14] | combination Emax [15] | combination Emax [16] | combination Emax [17] | combination Emax [18] | combination Emax [19] | combination Emax [20] |
| --- | --- | --- | --- | --- | --- | --- | --- | --- | --- | --- | --- | --- | --- | --- | --- | --- | --- | --- | --- | --- |
| Cn1cnc2c(F)c(Nc3ccc(Br)cc3Cl)c(C(=O)NOCCO)cc21 [Selumetinib] + C[C@@H]1COCCN1C2=NC(=NC(=C2)C3(CC3)[S@](=N)(=O)C)C4=C5C=CNC5=NC=C4 [AZD6738] (first compound max 10 µM, 7x7, partner max 10 µM) | -0.0526 | 0.0396 | 0.612 | 0.465 | 0.855 | 0.347 | 0.111 | 0.0701 | 0.899 | 0.619 | 0.836 | 0.638 | 1 | 0.817 | 0.972 | 0.97 | 0.276 | 0.982 | 0.934 | 0.822 |
| CC(=O)Nc1cccc(-n2c(=O)n(C3CC3)c(=O)c3c(Nc4ccc(I)cc4F)n(C)c(=O)c(C)c32)c1 [Trametinib] + Cc1nc(-c2cn3c(n2)-c2ccc(-c4cnn(C(C)(C)C(N)=O)c4)cc2OCC3)n(C(C)C)n1 [Taselisib] (first compound max 1 µM, 7x7, partner max 10 µM) | -0.0331 | 0.184 | 0.82 | 0.714 | 0.488 | 0.411 | 0.161 | 0.245 | 0.928 | 0.705 | 1 | 0.816 | 0.635 | 0.73 | 1 | 0.848 | 0.588 | 0.968 | 0.831 | 0.245 |
| CC1(C)CCC(CN2CCN(c3ccc(C(=O)NS(=O)(=O)c4ccc(NCC5CCOCC5)c([N+](=O)[O-])c4)c(Oc4cnc5[nH]ccc5c4)c3)CC2)=C(c2ccc(Cl)cc2)C1 [Venetoclax] + C1CN(CCC1(C(=O)N[C@@H](CCO)C2=CC=C(C=C2)Cl)N)C3=NC=NC4=C3C=CN4 [Capivasertib] (first compound max 1 µM, 7x7, partner max 3 µM) | -0.0357 | -0.0153 | 0.592 | 0.517 | 0.255 | 0.2 | 0.354 | 0.133 | 0.298 | 0.143 | 0.724 | 0.415 | 0.824 | 0.203 | 0.498 | 1 | 0.152 | 0.933 | 0.687 | 0.667 |
| CC1(C)CCC(CN2CCN(c3ccc(C(=O)NS(=O)(=O)c4ccc(NCC5CCOCC5)c([N+](=O)[O-])c4)c(Oc4cnc5[nH]ccc5c4)c3)CC2)=C(c2ccc(Cl)cc2)C1 [Venetoclax] + C=CCn1c(=O)c2cnc(Nc3ccc(N4CCN(C)CC4)cc3)nc2n1-c1cccc(C(C)(C)O)n1 [AZD1775] (first compound max 1 µM, partner max 1 µM) | -0.053 | 0.0449 | 0.558 | 0.599 | 0.928 | 0.349 | 0.696 | 0.289 | 0.599 | 0.393 | 0.883 | 0.836 | 1 | 0.953 | 0.98 | 1 | 0.557 | 1 | 1 | 0.68 |
| CC1(C)CCC(CN2CCN(c3ccc(C(=O)NS(=O)(=O)c4ccc(NCC5CCOCC5)c([N+](=O)[O-])c4)c(Oc4cnc5[nH]ccc5c4)c3)CC2)=C(c2ccc(Cl)cc2)C1 [Venetoclax] + CCN(CCO)CCCOc1ccc2c(Nc3cc(CC(=O)Nc4cccc(F)c4)[nH]n3)ncnc2c1 [AZD2811] (first compound max 1 µM, 7x7, partner max 1 µM) | -0.0608 | 0.0738 | 0.421 | 0.243 | 0.261 | 0.157 | 0.39 | 0.217 | 0.121 | 0.178 | 0.748 | 0.346 | 0.974 | 0.434 | 0.702 | 1 | 0.142 | 0.998 | 1 | 0.755 |
